Test results as given in patent US11911346B2, “Orally administrated therapeutic for treating mild cognitive impairment (MCI) and improving human cognitive function” (BrainCare LLC, priority 2021, dated 2024).

System: cognitive function of participants with Subjective Cognitive Decline
Assay: Cognitive Failures Questionnaire (CFQ), 8-week randomized study of one or two BCP capsules daily
Type: in vivo, human
Conditions: two capsules daily (180 mg BCP); for CFQ score: Do you bump into people? / CFQ score: Do you confuse left and right when giving people directions? / CFQ score: Do you daydream when you ought to be listening to something? / CFQ score: Do you fail to hear people speaking to you when you are doing something? / CFQ score: Do you fail to listen to people's names when you are meeting them for the first time? / CFQ score: Do you fail to notice signposts on the road? / CFQ score: Do you fail to see what you want in a supermarket (although it's there)? / CFQ score: Do you find that you drop things? / CFQ score: Do you find that you forget appointments? / CFQ score: Do you find you accidentally misplace things like placing the fruit in the cupboard and the bowl in the refrigerator? / CFQ score: Do you find you can't quite remember something although it's “on the tip of your tongue”? / CFQ score: Do you find you can't think of anything to say? / CFQ score: Do you find you forget people's names? / CFQ score: Do you find you forget what you came to the store to buy? / CFQ score: Do you find you forget whether you've turned off a light or locked the door? / CFQ score: Do you find you forget which way to turn on a road you know well but rarely use? / CFQ score: Do you find you forget why you went from one place of the house to the other? / CFQ score: Do you find yourself suddenly wondering if you used a word correctly? / CFQ score: Do you forget where you put something like a newspaper or a book? / CFQ score: Do you have trouble making up your mind? / CFQ score: Do you lose track of paying bills? / CFQ score: Do you lose your temper and regret it? / CFQ score: Do you read something and find you haven't been thinking about it and must read it again? / CFQ score: Do you say something and realize afterwards that it might be taken as an insult? / CFQ score: Do you start doing one thing at home and get distracted and do something else (unintentionally)? / Distractibility summed sub-score of CFQ / False triggering summed sub-score of CFQ / Forgetfulness summed sub-score of CFQ / Total CFQ summed sub-score: lower is better
[1] = week 4, listed as beta-caryophyllene
[2] = week 8, listed as beta-caryophyllene

SMILES: C=C1CC/C=C(\C)CC[C@@H]2[C@@H]1CC2(C)C [BCP, beta-caryophyllene]
- CFQ % better vs. baseline: Do you find yourself suddenly wondering if you used a word correctly? (week 4): 29% better
- CFQ % better vs. baseline: Do you forget where you put something like a newspaper or a book? (week 4): 19%
- CFQ % better vs. baseline: Do you have trouble making up your mind? (week 4): 21% better
- CFQ % better vs. baseline: Do you lose track of paying bills? (week 4): 10% better
- CFQ % better vs. baseline: Do you lose your temper and regret it? (week 4): 26% better
- CFQ % better vs. baseline: Do you read something and find you haven't been thinking about it and must read it again? (week 4): 39%
- CFQ % better vs. baseline: Do you start doing one thing at home and get distracted and do something else (unintentionally)? (week 4): 30%
- CFQ change vs. baseline: Do you say something and realize afterwards that it might be taken as an insult? (week 4): No change
- Distractibility summed sub-score of CFQ, % better vs. baseline (week 4): 20%
- False triggering summed sub-score of CFQ, % better vs. baseline (week 4): 33%
- Forgetfulness summed sub-score of CFQ, % better vs. baseline (week 4): 27%
- Total CFQ summed sub-score, % better vs. baseline (week 4): 25%
- CFQ % better vs. baseline: Do you daydream when you ought to be listening to something? [1]: 28% better
- CFQ % better vs. baseline: Do you find you can't quite remember something although it's “on the tip of your tongue”? [1]: 20% better
- CFQ % better vs. baseline: Do you find you forget whether you've turned off a light or locked the door? [1]: 45% better
- CFQ % better vs. baseline: Do you find you forget why you went from one place of the house to the other? [1]: 39% better
- CFQ % better vs. baseline: Do you forget where you put something like a newspaper or a book? [1]: 19% better
- CFQ % better vs. baseline: Do you read something and find you haven't been thinking about it and must read it again? [1]: 39% better
- CFQ % better vs. baseline: Do you start doing one thing at home and get distracted and do something else (unintentionally)? [1]: 30% better
- Distractibility summed sub-score of CFQ, % better vs. baseline [1]: 20% better
- False triggering summed sub-score of CFQ, % better vs. baseline [1]: 33% better
- Forgetfulness summed sub-score of CFQ, % better vs. baseline [1]: 27% better
- Total CFQ summed sub-score, % better vs. baseline [1]: 25% better
- CFQ score: Do you bump into people? (week 4): 0.6 ± 0.8
- CFQ score: Do you confuse left and right when giving people directions? (week 4): 0.7 ± 0.8
- CFQ score: Do you daydream when you ought to be listening to something? (week 4): 1.3 ± 0.9
- CFQ score: Do you fail to hear people speaking to you when you are doing something? (week 4): 1.5 ± 1.1
- CFQ score: Do you fail to listen to people's names when you are meeting them for the first time? (week 4): 1.8 ± 1.2
- CFQ score: Do you fail to notice signposts on the road? (week 4): 0.7 ± 0.7
- CFQ score: Do you fail to see what you want in a supermarket (although it's there)? (week 4): 1.1 ± 1.0
- CFQ score: Do you find that you drop things? (week 4): 1.1 ± 0.7
- CFQ score: Do you find that you forget appointments? (week 4): 0.7 ± 0.8
- CFQ score: Do you find you accidentally misplace things like placing the fruit in the cupboard and the bowl in the refrigerator? (week 4): 0.7 ± 0.9
- CFQ score: Do you find you can't quite remember something although it's “on the tip of your tongue”? (week 4): 2.0 ± 1.0^
- CFQ score: Do you find you can't think of anything to say? (week 4): 0.8 ± 0.8
- CFQ score: Do you find you forget people's names? (week 4): 2.0 ± 0.9
- CFQ score: Do you find you forget what you came to the store to buy? (week 4): 1.0 ± 0.9
- CFQ score: Do you find you forget whether you've turned off a light or locked the door? (week 4): 1.1 ± 0.9
- CFQ score: Do you find you forget which way to turn on a road you know well but rarely use? (week 4): 0.6 ± 0.8
- CFQ score: Do you find you forget why you went from one place of the house to the other? (week 4): 1.4 ± 0.7^
- CFQ score: Do you find yourself suddenly wondering if you used a word correctly? (week 4): 1.0 ± 1.1
- CFQ score: Do you forget where you put something like a newspaper or a book? (week 4): 1.7 ± 0.9^
- CFQ score: Do you have trouble making up your mind? (week 4): 1.5 ± 1.1
- CFQ score: Do you lose track of paying bills? (week 4): 0.9 ± 1.0
- CFQ score: Do you lose your temper and regret it? (week 4): 1.1 ± 0.8
- CFQ score: Do you read something and find you haven't been thinking about it and must read it again? (week 4): 1.5 ± 0.9
- CFQ score: Do you say something and realize afterwards that it might be taken as an insult? (week 4): 1.4 ± 0.9
- CFQ score: Do you start doing one thing at home and get distracted and do something else (unintentionally)? (week 4): 1.9 ± 0.8
- Distractibility summed sub-score of CFQ (week 4): 10 ± 5
- False triggering summed sub-score of CFQ (week 4): 7 ± 4^
- Forgetfulness summed sub-score of CFQ (week 4): 12 ± 5^
- Total CFQ summed sub-score (week 4): 29 ± 14
- CFQ % better vs. baseline: Do you bump into people? (week 8): 29% better
- CFQ % better vs. baseline: Do you confuse left and right when giving people directions? (week 8): 22% better
- CFQ % better vs. baseline: Do you daydream when you ought to be listening to something? (week 8): 33%
- CFQ % better vs. baseline: Do you fail to hear people speaking to you when you are doing something? (week 8): 23% better
- CFQ % better vs. baseline: Do you fail to listen to people's names when you are meeting them for the first time? (week 8): 17% better
- CFQ % better vs. baseline: Do you fail to notice signposts on the road? (week 8): 20% better
- CFQ % better vs. baseline: Do you fail to see what you want in a supermarket (although it's there)? (week 8): 23% better
- CFQ % better vs. baseline: Do you find that you drop things? (week 8): 33% better
- CFQ % better vs. baseline: Do you find that you forget appointments? (week 8): 50% better
- CFQ % better vs. baseline: Do you find you accidentally misplace things like placing the fruit in the cupboard and the bowl in the refrigerator? (week 8): 63%
- CFQ % better vs. baseline: Do you find you can't quite remember something although it's “on the tip of your tongue”? (week 8): 12% better
- CFQ % better vs. baseline: Do you find you can't think of anything to say? (week 8): 27% better
- CFQ % better vs. baseline: Do you find you forget people's names? (week 8): 20% better
- CFQ % better vs. baseline: Do you find you forget what you came to the store to buy? (week 8): 27% better
- CFQ % better vs. baseline: Do you find you forget whether you've turned off a light or locked the door? (week 8): 40%
- CFQ % better vs. baseline: Do you find you forget which way to turn on a road you know well but rarely use? (week 8): 44% better
- CFQ % better vs. baseline: Do you find you forget why you went from one place of the house to the other? (week 8): 39%
- CFQ % better vs. baseline: Do you find yourself suddenly wondering if you used a word correctly? (week 8): 43% better
- CFQ % better vs. baseline: Do you forget where you put something like a newspaper or a book? (week 8): 29%
- CFQ % better vs. baseline: Do you have trouble making up your mind? (week 8): 26% better
- CFQ % better vs. baseline: Do you lose track of paying bills? (week 8): 30% better
- CFQ % better vs. baseline: Do you lose your temper and regret it? (week 8): 33% better
- CFQ % better vs. baseline: Do you read something and find you haven't been thinking about it and must read it again? (week 8): 39%
- CFQ % better vs. baseline: Do you say something and realize afterwards that it might be taken as an insult? (week 8): 14% better
- CFQ % better vs. baseline: Do you start doing one thing at home and get distracted and do something else (unintentionally)? (week 8): 30%
- Distractibility summed sub-score of CFQ, % better vs. baseline (week 8): 29%
- False triggering summed sub-score of CFQ, % better vs. baseline (week 8): 36%
- Forgetfulness summed sub-score of CFQ, % better vs. baseline (week 8): 27%
- Total CFQ summed sub-score, % better vs. baseline (week 8): 30%
- CFQ % better vs. baseline: Do you daydream when you ought to be listening to something? [2]: 33% better
- CFQ % better vs. baseline: Do you find you accidentally misplace things like placing the fruit in the cupboard and the bowl in the refrigerator? [2]: 63% better
- CFQ % better vs. baseline: Do you find you forget whether you've turned off a light or locked the door? [2]: 40% better
- CFQ % better vs. baseline: Do you find you forget why you went from one place of the house to the other? [2]: 39% better
- CFQ % better vs. baseline: Do you forget where you put something like a newspaper or a book? [2]: 29% better
- CFQ % better vs. baseline: Do you read something and find you haven't been thinking about it and must read it again? [2]: 39% better
- CFQ % better vs. baseline: Do you start doing one thing at home and get distracted and do something else (unintentionally)? [2]: 30% better
- Distractibility summed sub-score of CFQ, % better vs. baseline [2]: 29% better
- False triggering summed sub-score of CFQ, % better vs. baseline [2]: 36% better
- Forgetfulness summed sub-score of CFQ, % better vs. baseline [2]: 27% better
- Total CFQ summed sub-score, % better vs. baseline [2]: 30% better
- CFQ score: Do you bump into people? (week 8): 0.5 ± 0.6
- CFQ score: Do you confuse left and right when giving people directions? (week 8): 0.7 ± 0.8
- CFQ score: Do you daydream when you ought to be listening to something? (week 8): 1.2 ± 0.9
- CFQ score: Do you fail to hear people speaking to you when you are doing something? (week 8): 1.3 ± 1.1
- CFQ score: Do you fail to listen to people's names when you are meeting them for the first time? (week 8): 1.9 ± 1.1
- CFQ score: Do you fail to notice signposts on the road? (week 8): 0.8 ± 0.7
- CFQ score: Do you fail to see what you want in a supermarket (although it's there)? (week 8): 1.0 ± 0.8
- CFQ score: Do you find that you drop things? (week 8): 1.0 ± 0.7
- CFQ score: Do you find that you forget appointments? (week 8): 0.5 ± 0.5
- CFQ score: Do you find you accidentally misplace things like placing the fruit in the cupboard and the bowl in the refrigerator? (week 8): 0.3 ± 0.5
- CFQ score: Do you find you can't quite remember something although it's “on the tip of your tongue”? (week 8): 2.2 ± 0.8
- CFQ score: Do you find you can't think of anything to say? (week 8): 0.8 ± 0.7
- CFQ score: Do you find you forget people's names? (week 8): 2.0 ± 1.0
- CFQ score: Do you find you forget what you came to the store to buy? (week 8): 1.1 ± 0.9
- CFQ score: Do you find you forget whether you've turned off a light or locked the door? (week 8): 1.2 ± 0.7
- CFQ score: Do you find you forget which way to turn on a road you know well but rarely use? (week 8): 0.5 ± 0.6
- CFQ score: Do you find you forget why you went from one place of the house to the other? (week 8): 1.4 ± 0.8^
- CFQ score: Do you find yourself suddenly wondering if you used a word correctly? (week 8): 0.8 ± 0.9
- CFQ score: Do you forget where you put something like a newspaper or a book? (week 8): 1.5 ± 0.9^
- CFQ score: Do you have trouble making up your mind? (week 8): 1.4 ± 0.9
- CFQ score: Do you lose track of paying bills? (week 8): 0.7 ± 0.9
- CFQ score: Do you lose your temper and regret it? (week 8): 1.0 ± 0.7
- CFQ score: Do you read something and find you haven't been thinking about it and must read it again? (week 8): 1.4 ± 0.8
- CFQ score: Do you say something and realize afterwards that it might be taken as an insult? (week 8): 1.2 ± 0.7
- CFQ score: Do you start doing one thing at home and get distracted and do something else (unintentionally)? (week 8): 1.9 ± 0.7
- Distractibility summed sub-score of CFQ (week 8): 9 ± 4
- False triggering summed sub-score of CFQ (week 8): 7 ± 4^
- Forgetfulness summed sub-score of CFQ (week 8): 12 ± 5^
- Total CFQ summed sub-score (week 8): 27 ± 11
